Measurements taken from US20160185745A1, “ANALOGS OF VINAXANTHONE AND XANTHOFULVIN, METHODS OF SYNTHESIS, AND METHODS OF TREATMENTS THEREOF” (BOARD OF REGENTS, THE UNIVERSITY OF TEXAS SYSTEM, priority 2013, published 2016).

How the values were obtained:
[1] = system: GFP-labeled cholinergic neurons; experiment: outgrowth of GFP-labeled cholinergic neurons in vivo in C. elegans; conditions: for outgrowth activity of GFP-labeled cholinergic neurons: control 0.2% DMSO in M9 buffer, compared with dibutyryl cAMP
Method: (§1) Control: 0.2% DMSO in M9 buffer. […] Additionally, several analogs were prepared and their biological activity was measured.

[2] = biological target: T1, semaphorin 3A (Sema3A) (Homo sapiens, UniProt Q14563); conditions: read-out: Sema3A inhibitory activity IC50 (converted); cited from earlier work
T1 sequence (Q14563 21-771): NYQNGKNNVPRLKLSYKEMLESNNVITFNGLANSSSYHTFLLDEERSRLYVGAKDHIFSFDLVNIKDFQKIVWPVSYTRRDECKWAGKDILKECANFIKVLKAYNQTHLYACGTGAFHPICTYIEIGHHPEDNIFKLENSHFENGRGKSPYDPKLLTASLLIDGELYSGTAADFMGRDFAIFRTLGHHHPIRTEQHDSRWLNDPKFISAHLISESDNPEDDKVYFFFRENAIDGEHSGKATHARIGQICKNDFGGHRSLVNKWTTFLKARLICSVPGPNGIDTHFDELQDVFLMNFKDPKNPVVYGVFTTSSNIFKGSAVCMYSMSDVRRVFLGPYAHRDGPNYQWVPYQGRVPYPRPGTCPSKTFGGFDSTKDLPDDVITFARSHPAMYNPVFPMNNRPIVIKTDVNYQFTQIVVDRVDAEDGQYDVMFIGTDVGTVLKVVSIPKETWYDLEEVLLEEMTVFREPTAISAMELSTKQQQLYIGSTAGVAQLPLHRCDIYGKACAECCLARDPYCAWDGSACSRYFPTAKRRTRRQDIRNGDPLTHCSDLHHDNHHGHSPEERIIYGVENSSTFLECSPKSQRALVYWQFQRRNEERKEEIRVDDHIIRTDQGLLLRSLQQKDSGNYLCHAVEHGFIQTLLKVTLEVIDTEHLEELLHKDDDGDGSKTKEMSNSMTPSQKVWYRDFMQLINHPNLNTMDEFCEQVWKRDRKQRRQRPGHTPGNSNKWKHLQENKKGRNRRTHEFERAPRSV

[3] = biological target: T2, SUCNR1 (Homo sapiens, UniProt Q9BXA5); experiment: modulation of SUCNR1 when administered with sodium succinate; assay type: cell-based; conditions: compared to sodium succinate alone
T2 sequence (Q9BXA5 1-334): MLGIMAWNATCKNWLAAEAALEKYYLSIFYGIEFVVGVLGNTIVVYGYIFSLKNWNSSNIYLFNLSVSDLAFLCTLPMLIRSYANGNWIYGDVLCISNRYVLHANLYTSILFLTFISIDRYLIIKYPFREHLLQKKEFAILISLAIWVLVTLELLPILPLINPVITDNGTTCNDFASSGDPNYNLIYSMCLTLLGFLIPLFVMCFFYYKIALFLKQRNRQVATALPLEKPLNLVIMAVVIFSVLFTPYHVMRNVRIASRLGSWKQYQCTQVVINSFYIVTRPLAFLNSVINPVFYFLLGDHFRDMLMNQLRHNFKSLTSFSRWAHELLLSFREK
Method: The values are compared to 100% activation by sodium succinate.
as §1

[4] = at concentrations >1000 times the effective dose; cited from earlier work

| Dose ratio [3] | efficacy value [3] [%] | Compound | promotes branching in % of animals ([1]; at 2 mM) [%] | IC50 [2] [nM] | outgrowth activity of GFP-labeled cholinergic neurons [1] | cytotoxicity effects [4] |
| --- | --- | --- | --- | --- | --- | --- |
|  |  | CCCC(=O)Nc1ncnc2c1ncn2[C@@H]1O[C@@H]2COP(=O)(O)O[C@H]2[C@H]1OC(=O)CCC [dibutyryl cAMP, reference compound] | 36 |  |  |  |
| 0.33 | 230 | CC(=O)c1cc2c(=O)c3c(C(=O)O)c(O)c(O)cc3oc2c(C(C)=O)c1-c1coc2cc(O)c(O)c(C(=O)O)c2c1=O [vinaxanthone, 5,7-diacetyl-6-(5-carboxy-6,7-dihydroxy-4-oxo-4H-chromen-3-yl)-2,3-dihydroxy-9-oxo-9H-xanthene-1-carboxylic acid] |  | 173 | comparable to dibutyryl cAMP | no observable cytotoxicity effects |
| 0.32 | 222 | CC(=O)c1c(C)c(/C(O)=C2\COc3cc(O)c(O)c(C(=O)O)c3C2=O)cc2c(=O)c3c(C(=O)O)c(O)c(O)cc3oc12 [xanthofulvin] |  |  | comparable to dibutyryl cAMP |  |
